# Laboratory results taken from PMC8269107, “Lipidation of Temporin-1CEb Derivatives as a Tool for Activity Improvement, Pros and Cons of the Approach” (International Journal of Molecular Sciences, 2021).
# Read-outs that look alike come from different tables or passages of the source. Where a SMILES comes first, the peptide text is derived from it. [ ]: non-standard residue; d: D form. The star is where a group is joined. Lauroyl = CCCCCCCCCCCC(=O)*; Pentanoyl = CCCCC(=O)*; AEEA = NCCOCCOCC(=O)O; βAla = NCCC(=O)O
# Key:
# [1] = Serum stability in 25% human serum (RP-UPLC); details: male, amount of the intact compound, after 5 h of incubation in 25% human serum, 37 °C
# Procedure: At the beginning of the experiment, 25% human serum (human serum, from human male AB plasma, Sigma-Aldrich) was centrifuged at 12,000 rpm for 10 min in order to remove the excessive amount of lipids in the serum preparation, and the supernatant was collected and incubated at 37 °C for 15 min under shaking. The assay was initiated upon the addition of the peptide to the serum yielding a final peptide concentration of 75 µg/mL. The 50 µL aliquots of the incubated mixtures were taken at the following time intervals: 0, 30, 60, 120, 240 and 300 min. The aliquots were mixed with 50 µL of absolute ethanol, incubated on ice for 15 min to precipitate serum proteins and then centrifuged (12,000 rpm, 10 min). The supernatants were collected and lyophilized. Dry samples were further dissolved in 100 µL of HPLC-grade water and then analyzed. […]
# RP-UPLC analysis was performed using Nexera system (Shimadzu Europe GmbH, Duisburg, Germany) with C12 Jupiter Proteo column (150 × 2 mm, 90Å, 4 micron) (Phenomenex, USA) applying a linear aqueous acetonitrile gradient 1–80%B in 20 min using solutions A (0.1% TFA in water) and B (0.1%TFA in 80% acetonitrile) with a flow rate 0.6 mL/min and detection at 220 nm. The quantity of the intact peptide at each time point was expressed as a percentage of the peak area with respect to time “zero” (100%).
# [2] = ITC, binding to zwitterionic membrane; details: 25 °C; for pKITC: POPC LUVs
# Procedure: The ITC experiments were performed according to the previously reported protocol in PBS (pH 7.4) at 25 °C using an AutoITC isothermal titration calorimeter (MicroCal Inc., Northampton, USA) with a 1.4491-mL sample and reference cells filled with distilled water. In each experiment, 29 injections of 10.02 µL each (2 µL for the first only) of a liposome solution at a concentration of 1.31 mM were added into a 0.05 mM and/or 0.1 mM peptide solution. An initial 2-μL injection was discarded from each dataset in order to remove the effect of titrant diffusion across the syringe tip during the equilibration process. Each injection lasted 20 s. The titrant was injected at 4 min intervals to ensure that the titration peak returned to the baseline before the next injection. To ensure a homogeneous mixing in the cell, the stirrer speed was kept constant at 300 rpm.
# A complete binding of the peptide to lipid vesicles provides the possibility for determination of the total binding enthalpy (∆H) as well as a binding constant (Ka), reflecting the affinity of the lipopeptide to liposomes, stoichiometry of binding (n), that is, the number of phospholipids per peptide, by fitting the titration result data to one set of sites’ model using Origin 7 from MicroCal. Changes in entropy (∆S) and the Gibbs free energy (∆G) were calculated from Equation (1), where factor 55.5 is the molar concentration of water, R is the gas constant (1.986 cal·mol^−1·K^−1) and T is the absolute temperature:∆G = -RTln(55.5Ka) = ∆H-T∆S(1)
# The liposomes for ITC experiments were made of POPC or POPG lipids. The lipids were dissolved in a chloroform:methanol (2:1; v/v) mixture, evaporated under nitrogen and desiccated under vacuum overnight to remove any residual solvents. Afterwards, the dry lipid film was resuspended in a phosphate buffer solution and shaken for 2 h at room temperature (phase transition point, Tm = −2 °C) to obtain multilamellar vesicles (MLVs). […]
# P. aeruginosa PA1 = assay type: cell-based, Pseudomonas aeruginosa
# From the text: (§1) Escherichia coli (PCM 2057 = ATCC 25922), Staphylococcus aureus (PCM 2054 = ATCC 25923), Staphylococcus epidermidis (PCM 2118 = ATCC 14990), Bacillus subtilis (PCM 2224 = ATCC 9799), Bacillus cereus (PCM 482 = ATCC 10702) and Pseudomonas aeruginosa (PCM 499 = ATCC 10145) were obtained from the Polish Collection of Microorganisms. Fungi strains Candida albicans (CCM 8186 = CNTC 49/64), Candida glabrata (CCM 8270 = ATCC 90030), Candida parapsilosis (CCM 8260 = ATCC 22019) and Candida krusei (CCM 8271 = ATCC 6258) were acquired from the Czech Collection of Microorganisms. S. aureus USA300 (wild type strain), the reference strain of Klebsiella pneumoniae (ATCC 13883) and clinical isolates of Pseudomonas aeruginosa (PA1, PA2) collected from nonrelated patients admitted to the Stefan Zeromski Specialist Municipal Hospital in Krakow (Poland) were kindly provided by the research group of the Department of Microbiology, Faculty of Biochemistry, Biophysics and Biotechnology, Jagiellonian University, Krakow, Poland.
# (§2) Luria-Bertani broth (LB) and Sabouraud Dextrose broth (SB) (Biocorp, Poland) were used for cultivation of bacteria and fungi strains, respectively. The antimicrobial activity of the peptides were analyzed through determination of MIC (minimal inhibitory concentration) parameters according to Clinical and Laboratory Standards (CLSI) guidelines developed for aerobic bacteria and yeasts, respectively. Mueller-Hinton broth (MHB) was used as the working medium for all bacterial strains, while in the case of fungi, RPMI-1640 (with L-glutamine, without sodium bicarbonate) growth medium buffered with MOPS (morpholinepropanesulfonic acid) and supplemented with 2% glucose was used. Inoculum was prepared from freshly grown cultures of microorganisms at their exponential phase of growth. […] Plates were then incubated for 24 h at 37 °C in the case of bacteria and at 35 °C in the case of fungi. After that time, absorbance was read at 590 nm with a Perkin Elmer plate reader. Cultures without peptide were treated as positive control, while uninoculated media were defined as negative control. All measurements were run at least in triplicate.
# P. aeruginosa PA2 = assay type: cell-based, Pseudomonas aeruginosa
# From the text: as §1, §2
# S. aureus PCM 2054 = assay type: cell-based, Staphylococcus aureus; details: S. aureus PCM 2054, Mueller-Hinton broth + 1% human serum
# Procedure: Additionally, we performed a comparative analysis of MICs obtained for the tested compounds against S. aureus PCM2054 in two types of growth medium, i.e., the standard MHB and MHB supplemented with 1% human serum and in the absence of 1% serum. The assay was performed as described in 4.3.1.
# [3] = P. aeruginosa PA1 clinical isolate
# [4] = P. aeruginosa PA2 clinical isolate
SMILES,"remaining at 5 h, 75 µg/mL [1]",pKITC [2],MIC100 (P. aeruginosa PA1; [3]),MIC100 (P. aeruginosa PA2; [4]),"MIC100 (P. aeruginosa PA1; PA1, 24 h)","MIC100 (P. aeruginosa PA2; PA2, 24 h)",MIC (S. aureus PCM 2054),binding constants (order of) ([2]; POPC vesicles)
CCCCC(=O)NCCC(=O)N[C@@H](Cc1c[nH]cn1)C(=O)NCCOCCOCC(=O)N[C@H](C(=O)N[C@@H](CCCCN)C(=O)N[C@@H](CCCCN)C(=O)N[C@H](C(=O)N[C@@H](CC(C)C)C(=O)N[C@@H](CO)C(=O)N[C@@H](CCCCN)C(=O)N[C@H](C(=O)N[C@@H](CCCCN)C(=O)N[C@@H](CCCCN)C(=O)N[C@@H](CC(C)C)C(=O)N[C@@H](CC(C)C)C(N)=O)[C@@H](C)CC)[C@@H](C)CC)[C@@H](C)CC [C5-CAR-PEG-DK5] ({Pentanoyl-βAla}-H[AEEA]IKKILSKIKKLL-NH2),77%,–,–,–,–,–,–,–
CCCCCCCCCCCC(=O)NCCC(=O)N[C@@H](Cc1c[nH]cn1)C(=O)NCCOCCOCC(=O)N[C@H](C(=O)N[C@@H](CCCCN)C(=O)N[C@@H](CCCCN)C(=O)N[C@H](C(=O)N[C@@H](CC(C)C)C(=O)N[C@@H](CO)C(=O)N[C@@H](CCCCN)C(=O)N[C@H](C(=O)N[C@@H](CCCCN)C(=O)N[C@@H](CCCCN)C(=O)N[C@@H](CC(C)C)C(=O)N[C@@H](CC(C)C)C(N)=O)[C@@H](C)CC)[C@@H](C)CC)[C@@H](C)CC [C12-CAR-PEG-DK5] ({Lauroyl-βAla}-H[AEEA]IKKILSKIKKLL-NH2),–,5.38 ± 0.14,12.5 µg/mL,25 µg/mL,–,–,–,–
CC[C@H](C)[C@H](NC(=O)COCCOCCNC(=O)[C@H](Cc1c[nH]cn1)NC(=O)CCN)C(=O)N[C@@H](CCCCN)C(=O)N[C@@H](CCCCN)C(=O)N[C@H](C(=O)N[C@@H](CC(C)C)C(=O)N[C@@H](CO)C(=O)N[C@@H](CCCCN)C(=O)N[C@H](C(=O)N[C@@H](CCCCN)C(=O)N[C@@H](CCCCN)C(=O)N[C@@H](CC(C)C)C(=O)N[C@@H](CC(C)C)C(N)=O)[C@@H](C)CC)[C@@H](C)CC [CAR-PEG-DK5] (H-[βAla]H[AEEA]IKKILSKIKKLL-NH2; N-terminus and C-terminus assumed),–,–,–,–,100 µg/mL,100 µg/mL,–,–
CCCCC(=O)N[C@H](C(=O)N[C@@H](CCCCN)C(=O)N[C@@H](CCCCN)C(=O)N[C@H](C(=O)N[C@@H](CC(C)C)C(=O)N[C@@H](CO)C(=O)N[C@@H](CCCCN)C(=O)N[C@H](C(=O)N[C@@H](CCCCN)C(=O)N[C@@H](CCCCN)C(=O)N[C@@H](CC(C)C)C(=O)N[C@@H](CC(C)C)C(N)=O)[C@@H](C)CC)[C@@H](C)CC)[C@@H](C)CC [Compound C5-DK5] (Pentanoyl-IKKILSKIKKLL-NH2),46.2%,–,25 µg/mL,25 µg/mL,–,–,25 µg/mL,either a lack of interactions or that the binding was too weak to be detectable by ITC
CCCCCCCCCCCC(=O)N[C@H](C(=O)N[C@@H](CCCCN)C(=O)N[C@@H](CCCCN)C(=O)N[C@H](C(=O)N[C@@H](CC(C)C)C(=O)N[C@@H](CO)C(=O)N[C@@H](CCCCN)C(=O)N[C@H](C(=O)N[C@@H](CCCCN)C(=O)N[C@@H](CCCCN)C(=O)N[C@@H](CC(C)C)C(=O)N[C@@H](CC(C)C)C(N)=O)[C@@H](C)CC)[C@@H](C)CC)[C@@H](C)CC [Compound C12-DK5] (Lauroyl-IKKILSKIKKLL-NH2),–,4.40 ± 0.19,50 µg/mL,50 µg/mL,–,–,25 µg/mL,–
